From US6977263B2, “Chemical compounds” (Aventis Pharmaceuticals Inc., priority 2000, dated 2005) come the findings set out here.

Molecules are shown by their SMILES. Counter-ions that a name gives are not always drawn.

For the assay, the target named is T1, recombinant human β tryptase (Homo sapiens, UniProt Q15661).
T1 construct: made in house; host or cells: yeast cells
T1 sequence (Q15661 31-275): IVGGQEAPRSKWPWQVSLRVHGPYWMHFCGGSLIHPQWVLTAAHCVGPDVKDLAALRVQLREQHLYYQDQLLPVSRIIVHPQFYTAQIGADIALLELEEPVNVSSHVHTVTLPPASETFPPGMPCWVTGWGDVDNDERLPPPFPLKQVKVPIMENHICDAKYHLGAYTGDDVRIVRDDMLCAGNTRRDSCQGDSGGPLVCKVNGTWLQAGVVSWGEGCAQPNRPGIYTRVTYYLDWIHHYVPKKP
In words: Tryptase chromogenic enzyme assay (S2366 substrate), Ki determination. Type of assay: biochemical. The note with it: room temperature, 0.5 mM S2366 substrate (2×Km), read at 405 nm; Ki=IC50/(1+[Substrate]/Km). As to the method: Tryptase inhibition activity is confirmed using either isolated human lung tryptase or recombinant human β tryptase expressed in yeast cells. Essentially equivalent results are obtained using isolated native enzyme or the expressed enzyme. The assay procedure employs a 96 well microplate (Costar 3590) using L-pyroglutamyl-L-prolyl-L-arginine-para-nitroanilide (S2366: Quadratech) as substrate (essentially as described by McEuen et. al. Biochem Pharm, 1996, 52, pages 331-340). Assays are performed at room temperature using 0.5 mM substrate (2×Km) and the microplate is read on a microplate reader (Beckman Biomek Plate reader) at 405 nm wavelength. It was determined using the procedure set forth herein.
Materials and Methods for Tryptase Primary Screen (Chromogenic Assay)
S2366 (Stock solutions of 2.5 mM).
Purified recombinant beta Tryptase Stocks of 310 ug/ml.
• Add 60 ul of diluted substrate (final concentration of 500 uM in assay buffer) to each well • Add compound in duplicates, final concentration of 20 uM, volume 20 ul • Add enzyme at a final concentration of 50 ng/ml in a volume of 20 ul • Total volume for each well is 100 ul • Agitate briefly to mix and incubate at room temp in the dark for 30 minutes • Read absorbencies at […]
Each plate has the following controls • Totals: 60 ul of substrate, 20 ul of buffer (with 0.2% final concentration of DMSO), 20 ul of enzyme • Non-specific: 60 ul of substrate, 40 ul of buffer (with 0.2% DMSO) • Totals: 60 ul of substrate, 20 ul of buffer (No DMSO), 20 ul of enzyme • Non-specific: 60 ul of substrate, 40 ul of buffer (No DMSO) Protocol (IC50 and Ki Determination)
The protocol is essentially the same as above except that the compound is added in duplicates at the following final concentrations: 0.01, 0.03, 0.1, 0.3, 1, 3, 10 uM (All dilutions carried out manually). For every assay, whether single point or IC50 determination, a standard compound is used to derive IC50 for comparison. From the IC 50 value, the Ki can be calculated using the following formula: Ki=IC50/(1+[Substrate]/Km).
As usually defined, the Ki is the dissociation constant of the complex between target and ligand, obtained from inhibition or displacement. Regarding `NCc1cccc(C2CCN(C(=O)c3cccc(-c4nnc(-c5ccccc5Cl)o4)c3)CC2)c1` [Example 49, 1-[4-(3-Aminomethyl-phenyl)-piperidin-1-yl]-1-{3-[5-(2-chloro-phenyl)-[1,3,4]oxadiazol-2-yl]-phenyl}-methanone trifluoroacetate], the Ki was determined as 390 nM.

As to `N#CC1(c2cccc(CN)c2)CCN(C(=O)c2cncc(CCc3ccccc3)c2)CC1` [Example 35, 4-(3-Aminomethyl-phenyl)-1-(5-phenethyl-pyridine-3-carbonyl)-piperidine-4-carbonitrile], the Ki is 93 nM.

On to `NCc1cccc(C2CCN(C(=O)c3scc4c3CCCC4)CC2)c1` [Example 70, 1-[4-(3-Aminomethyl-phenyl)-piperidin-1-yl]-1-(4,5,6,7-tetrahydro-benzo[c]thiophen-1-yl)-methanone-trifluoroacetate], for which the Ki was determined as 290 nM.

Turning to `NCc1cccc(C2CCN(C(=O)c3ccc(Cl)c(Cl)c3)CC2)c1` [Example 36, [4-(3-Aminomethylphenyl)piperidin-1-yl]-(3,4-dichlorophenyl)methanone trifluoroacetate], the Ki worked out at 31 nM.

In the case of `NCc1cccc(C2CCN(C(=O)c3ccc(CCc4ccccc4)s3)CC2)c1` [Example 13, 3-[1-(5-Phenylethyl-thiophene-2-carbonyl)-piperidin-4-yl]-benzylamine hydrochloride], the Ki was 50 nM.

In the case of `NCc1cccc(C2CCN(C(=O)c3cccc(CCc4ccccc4O)c3)CC2)c1` [Example 98, 1-[4-(3-Aminomethyl-phenyl)-piperidin-1-yl]-1-{3-[2-(2-hydroxy-phenyl)-ethyl]-phenyl}-methanone hydrochloride], the inhibition constant Ki is 180 nM.

As for `NCc1cccc(C2CCN(C(=O)c3cccc(C#Cc4ccc(F)cc4)c3)CC2)c1` [Example 83, 1-[4-(3-Aminomethyl-phenyl)-piperidin-1-yl]-1-[3-(4-fluoro-phenylethynyl)-phenyl]-methanone trifluoroacetate], the inhibitory constant (Ki) turned out to be 870 nM.

`NCc1cccc(C2CCN(C(=O)c3ccc(CCc4ccccc4)cc3)CC2)c1` [Example 97, 1-[4-(3-Aminomethylphenyl)-piperidin-1-yl]-1-(4-phenylethyl-phenyl)-methanone hydrochloride]: the inhibitory constant (Ki) came to 450 nM.

Turning to `NCc1cc(C2CCN(C(=O)c3cncc(CCc4ccccc4)c3)CC2)cs1` [Example 100, dihydrochloride], the Ki came to 490 nM.

On to `NCc1cccc(C2CCN(C(=O)c3cccc(-c4nnc(-c5ccccc5)o4)c3)CC2)c1` [Example 19, 3-{1-[3-(5-Phenyl-1,3,4-oxadiazol-2-yl)-phenylcarbonyl]-piperidin-4-yl}-benzylamine hydrochloride], for which the Ki came to 180 nM.

`NCc1cccc(C2CCN(C(=O)c3ccc(Cl)cc3)CC2)c1` [Example 48, 1-[4-(3-Aminomethyl-phenyl)-piperidin-1-yl]-1-(4-chloro-phenyl)-methanone trifluoroacetate]: the Ki amounted to 390 nM.

In the case of `Cc1ccc(CN)cc1C1CCN(C(=O)c2cncc(CCc3ccccc3)c2)CC1` [Example 18, 4-Methyl-3-[1-(5-phenylethyl-pyridine-3-carbonyl)-piperidin-4-yl]-benzylamine di-hydrochloride], the inhibition constant (Ki) was found to be 69 nM.

On to `NCc1cccc(C2CCN(C(=O)c3cc4sc(Cl)cc4s3)CC2)c1` [Example 92, 1-[4-(3-Aminomethyl-phenyl)-piperidin-1-yl]-1-(5-chloro-thieno[3,2-b]thiophen-2-yl)-methanone trifluoroacetate], for which the Ki worked out at 190 nM.

Consider `NCc1cccc(C2CCN(C(=O)c3cccc(COc4ccccc4)c3)CC2)c1` [Example 15, 3-[1-(3-Phenoxymethyl-benzoyl)-piperidin-4-yl]-benzylamine hydrochloride], for which the inhibitory constant (Ki) is 1070 nM.
